The results in this text go back to patent US7323166B2, “Lactic acid bacteria cultures that inhibit food-borne pathogens” (Board of Regents University of Nebraska, priority 2002, dated 2008).

SMILES strings stand for the structures.

The subject of this assay is cattle isolates. Kind of assay: Test of antibiotic resistance in cattle isolates towards various antibiotics (share of isolates per category). In kind it is cell-based, lactic acid bacteria (LAB). The following applies: share of the 19 cattle isolates. The text has this:
The following are examples of types of drugs that would be included in the three categories: Category I: quinolones, vancomycin, dalfopristin/quinupristin, third generation cephalosporins; Category II: ampicillin, first and second generation cephalosporins, erythromycin, trimethoprim/sulfamethoxazole; and Category III: inophores (monensin) and polymixins (Polymixin B and colistin). […] A commercial antimicrobial susceptibility test kit-Etest (AB Biodisk, North America Inc., Piscatway, N.J.) was used to determine the minimum inhibitory concentrations (MIC) of the antibiotics for the isolates selected. Etest strips containing a predefined exponential gradient of a particular antibiotic were applied to agar plates containing Mueller Hinton Agar (Difco) pre-inoculated with an overnight culture of the given bacteria (inoculum of 0.5 McFarland turbidity in 0.85% NaCl). The agar plates with the strips were immediately incubated at 37° C. for 16-20 hours, when bacterial growth became distinctly visible. After incubation, MIC values (μg/ml) were read where the inhibition ellipse (centered along the strip) intersected the scale at the edge of the strip. The susceptibility categorization of organisms towards a specific antibiotic was provided in the Etest antibiotic supplements for each agent and was used to examine the susceptibility of lactic acid bacteria (LAB) isolates. Based on the categorization, MIC for a particular organism was reported as susceptible (S), intermediate (I), or resistant (R). When growth occurred along the entire strip, i.e. no inhibition ellipse was seen, the MIC was reported as greater than (>H) the highest value on the reading scale.

For `CC[C@H]1OC(=O)[C@H](C)[C@@H](O[C@H]2C[C@@](C)(OC)[C@@H](O)[C@H](C)O2)[C@H](C)[C@@H](O[C@@H]2O[C@H](C)C[C@H](N(C)C)[C@H]2O)[C@](C)(O)C[C@@H](C)C(=O)[C@H](C)[C@@H](O)[C@]1(C)O` [EM, Erythromycin], the “% Intermediate” value turned out to be 5.0%, the “% Resistant” value was determined as 21.0% and the “% Susceptible” value is 74.0%.

`Cc1c(F)c(N2CCNC(C)C2)cc2c1c(=O)c(C(=O)O)cn2C1CC1` (stereo not shown) [GP, Grepafloxacin]: the “% Intermediate” value is given as 10.0%, the “% Resistant” value turned out to be 58.0% and the “% Susceptible” value is listed as 32.0%. For the same compound, under “listed as grepafloxacin”, the “% Resistant” value turned out to be 58%.

In the case of `C[C@H]1COc2c(N3CCN(C)CC3)c(F)cc3c(=O)c(C(=O)O)cn1c23` [LE, Levofloxacin], the “% Intermediate” value was determined as 37.0%, the “% Resistant” value turned out to be 5.0% and the “% Susceptible” value came to 58.0%.

As to `CC1(C)S[C@@H]2[C@H](NC(=O)[C@H](N)c3ccccc3)C(=O)N2[C@H]1C(=O)O` [AM, Ampicillin], the “% Intermediate” value is given as 0.0%, the “% Resistant” value stood at 10.0% and the “% Susceptible” value amounted to 90.0%.

Regarding `CN(C)[C@@H]1C(O)=C(C(N)=O)C(=O)[C@@]2(O)C(O)=C3C(=O)c4c(O)cccc4[C@@](C)(O)[C@H]3C[C@@H]12` [TC, Tetracycline], the “% Intermediate” value is listed as 0.0%, the “% Resistant” value is 31.0% and the “% Susceptible” value was 69.0%.
